{
  "source": "ChEMBL document CHEMBL2169878",
  "about": "(J Med Chem, 2012)",
  "key": {"Plasmodium falciparum [1]": {"test_system": "Plasmodium falciparum", "experiment": "Resistance ratio of IC50 for chloroquine-resistant Plasmodium falciparum W2 to IC50 for chloroquine-sensitive Plasmodium falciparum D10", "type": "functional"}, "[2]": {"experiment": "Inhibition of beta hematin formation assessed as molar equivalent of the compound required to inhibit 50 % beta-hematin formation after 18 hrs by spectrophotometric microassay relative to hemin", "type": "functional"}, "Salmonella typhimurium [3]": {"test_system": "Salmonella typhimurium", "experiment": "Mutagenicity against Salmonella typhimurium TA98 assessed as revertants at 3 uM incubated for 90 mins followed by drug washout measured after 2 days relative to positive control", "type": "toxicity, organism-based", "details": "salmonella enterica subsp. enterica serovar typhimurium, 1.5 h"}, "Heart [4]": {"test_system": "Heart", "experiment": "Cardiotoxicity against Sprague-Dawley rat Langendorff perfused heart assessed as intraventricular conduction time at 10 uM by electrophysiological analysis (reference value: 13.92 0.42 ms)", "type": "toxicity, tissue-based"}, "Plasmodium berghei [5]": {"test_system": "Plasmodium berghei", "experiment": "Antimalarial activity against Plasmodium berghei ANKA expressing GFP infected in mouse assessed as reduction in parasitemia at 100 mg/kg, po administered 24 hrs post-infection measured 48 hrs post-dosing by flow cytometric analysis", "type": "functional", "set-up": "scale not given: the % may be the effect or the level left"}, "Plasmodium falciparum [6]": {"test_system": "Plasmodium falciparum", "experiment": "Antiplasmodial activity against chloroquine-resistant Plasmodium falciparum W2 infected in human RBC after 72 hrs by parasite lactate dehydrogenase assay", "type": "functional, organism-based", "details": "W2, 72 h"}, "Salmonella typhimurium [7]": {"test_system": "Salmonella typhimurium", "experiment": "Mutagenicity against Salmonella typhimurium TA98 assessed as revertants at 12 uM incubated for 90 mins followed by drug washout measured after 2 days relative to positive control", "type": "toxicity, organism-based", "details": "salmonella enterica subsp. enterica serovar typhimurium"}, "Heart [8]": {"test_system": "Heart", "experiment": "Cardiotoxicity against Sprague-Dawley rat Langendorff perfused heart assessed as intraventricular conduction time at 30 uM by electrophysiological analysis (reference value: 13.92 0.42 ms)", "type": "toxicity, tissue-based"}, "Plasmodium berghei [9]": {"test_system": "Plasmodium berghei", "experiment": "Antimalarial activity against Plasmodium berghei ANKA expressing GFP infected in mouse assessed as cure from infection at 30 mg/kg, po administered 24 hrs post-infection measured on day 30", "type": "functional, organism-based", "set-up": "dose 30 mg/kg"}, "Liver [10]": {"test_system": "Liver", "experiment": "Drug uptake in CD1 albino mouse liver at 50 mg/kg, po at 6 to 48 hrs", "type": "ADME, organism-based", "set-up": "dose 50 mg/kg, route oral", "details": "in vivo"}, "[11]": {"target": "T1, Chloroquine resistance transporter (Plasmodium falciparum) (UniProt Q9N623)", "T1 sequence (whole entry)": "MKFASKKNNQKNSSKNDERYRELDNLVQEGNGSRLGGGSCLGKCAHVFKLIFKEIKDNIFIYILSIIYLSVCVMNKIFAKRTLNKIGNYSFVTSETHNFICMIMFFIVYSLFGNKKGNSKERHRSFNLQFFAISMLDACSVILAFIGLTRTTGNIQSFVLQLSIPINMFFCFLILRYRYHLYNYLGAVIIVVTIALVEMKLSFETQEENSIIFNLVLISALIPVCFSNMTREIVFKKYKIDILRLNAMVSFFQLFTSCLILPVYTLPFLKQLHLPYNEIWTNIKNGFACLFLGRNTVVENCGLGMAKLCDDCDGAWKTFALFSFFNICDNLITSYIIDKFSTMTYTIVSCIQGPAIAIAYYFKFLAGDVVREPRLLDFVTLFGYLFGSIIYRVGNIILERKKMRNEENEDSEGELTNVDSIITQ", "experiment": "Inhibition of chloroquine-resistant Plasmodium falciparum Dd2 CRT expressed in Xenopus laevis oocyte assessed as inhibition of [3H]chloroquine uptake at 100 uM measured from 1 to 2 hrs"}, "Plasmodium berghei [12]": {"test_system": "Plasmodium berghei", "experiment": "Antimalarial activity against Plasmodium berghei ANKA expressing GFP infected in mouse assessed as mean survival days at 50 mg/kg, po administered QD for 3 days (reference value: 6 to 7 days)", "type": "functional"}, "Heart [13]": {"test_system": "Heart", "experiment": "Cardiotoxicity against Sprague-Dawley rat Langendorff perfused heart assessed as heart rate at 30 uM by electrophysiological analysis (reference value: 236.68 7.83 bpm)", "type": "toxicity, tissue-based"}, "Heart [14]": {"test_system": "Heart", "experiment": "Cardiotoxicity against Sprague-Dawley rat Langendorff perfused heart assessed as atrioventricular conduction time at 30 uM by electrophysiological analysis (reference value: 42.67 2.29 ms)", "type": "toxicity, tissue-based"}, "Heart [15]": {"test_system": "Heart", "experiment": "Cardiotoxicity against Sprague-Dawley rat Langendorff perfused heart assessed as heart rate at 0.1 uM by electrophysiological analysis (reference value: 236.68 7.83 bpm)", "type": "toxicity, tissue-based"}, "Heart [16]": {"test_system": "Heart", "experiment": "Cardiotoxicity against Sprague-Dawley rat Langendorff perfused heart assessed as atrioventricular conduction time at 1 uM by electrophysiological analysis (reference value: 42.67 2.29 ms)", "type": "toxicity, tissue-based"}, "Salmonella typhimurium [17]": {"test_system": "Salmonella typhimurium", "experiment": "Mutagenicity against Salmonella typhimurium TA98 assessed as revertants at 48 uM incubated for 90 mins followed by drug washout measured after 2 days relative to positive control", "type": "toxicity, organism-based", "details": "salmonella enterica subsp. enterica serovar typhimurium, 1.5 h"}, "Salmonella typhimurium [18]": {"test_system": "Salmonella typhimurium", "experiment": "Mutagenicity against Salmonella typhimurium TA100 assessed as revertants at 6 uM incubated for 90 mins followed by drug washout measured after 2 days relative to positive control", "type": "toxicity, organism-based", "details": "salmonella enterica subsp. enterica serovar typhimurium, 1.5 h"}, "Salmonella typhimurium [19]": {"test_system": "Salmonella typhimurium", "experiment": "Mutagenicity against Salmonella typhimurium TA100 assessed as revertants at 24 uM incubated for 90 mins followed by drug washout measured after 2 days relative to positive control", "type": "toxicity, organism-based", "details": "salmonella enterica subsp. enterica serovar typhimurium"}, "Plasmodium berghei [20]": {"test_system": "Plasmodium berghei", "experiment": "Antimalarial activity against Plasmodium berghei ANKA expressing GFP infected in mouse assessed as reduction in parasitemia at 30 mg/kg, po administered QD for 3 days measured 24 hrs post-final dosing by flow cytometric analysis", "type": "functional", "set-up": "scale not given: the % may be the effect or the level left"}, "[21]": {"experiment": "Elimination half life in CD1 albino mouse plasma at 50 mg/kg, po measured from 6 to 48 hrs post-dosing", "type": "ADME, organism-based", "set-up": "dose 50 mg/kg, route oral", "details": "read-out: beta t1/2 (converted)"}, "Plasma": {"test_system": "Plasma", "experiment": "Drug uptake in CD1 albino mouse plasma at 50 mg/kg, po up to 48 hrs", "type": "ADME, organism-based", "set-up": "dose 50 mg/kg, route oral", "details": "in vivo"}, "Heart [22]": {"test_system": "Heart", "experiment": "(§1) Cardiotoxicity against Sprague-Dawley rat Langendorff perfused heart assessed as reduction in left ventricular pressure by electrophysiological analysis", "type": "toxicity, tissue-based"}, "[23]": {"experiment": "as §1", "type": "toxicity, tissue-based", "details": "Sprague-Dawley, Langendorff perfused heart"}, "Heart [24]": {"test_system": "Heart", "experiment": "Cardiotoxicity against Sprague-Dawley rat Langendorff perfused heart assessed as QTc time interval at 0.1 uM by electrophysiological analysis (reference value: 145.78 10.53 ms)", "type": "toxicity, tissue-based"}, "Heart [25]": {"test_system": "Heart", "experiment": "Cardiotoxicity against Sprague-Dawley rat Langendorff perfused heart assessed as QT time interval at 30 uM by electrophysiological analysis (reference value: 73.01 4.52 ms)", "type": "toxicity, tissue-based"}, "Plasmodium falciparum [26]": {"test_system": "Plasmodium falciparum", "experiment": "Resistance ratio of IC50 for chloroquine-resistant Plasmodium falciparum K1 to IC50 for chloroquine-sensitive Plasmodium falciparum NF54", "type": "functional"}, "[27]": {"experiment": "Ratio of drug uptake in blood to plasma in CD1 albino mouse", "type": "ADME", "details": "whole blood and plasma"}, "Liver [28]": {"test_system": "Liver", "experiment": "Drug uptake in CD1 albino mouse liver at 50 mg/kg, po at 2 to 6 hrs", "type": "ADME, organism-based", "set-up": "dose 50 mg/kg, route oral", "details": "in vivo"}, "[29]": {"target": "T1, Chloroquine resistance transporter (Plasmodium falciparum)", "experiment": "Inhibition of chloroquine-sensitive Plasmodium falciparum D10 CRT expressed in Xenopus laevis oocyte assessed as inhibition of [3H]chloroquine uptake at 100 uM measured from 1 to 2 hrs"}, "Plasmodium berghei [30]": {"test_system": "Plasmodium berghei", "experiment": "Antimalarial activity against Plasmodium berghei ANKA expressing GFP infected in mouse assessed as reduction in parasitemia at 30 mg/kg, po administered at 6,24,48 and 72 hrs post-infection measured 24 hrs post-final dosing by flow cytometric analysis", "type": "functional", "set-up": "scale not given: the % may be the effect or the level left"}, "Salmonella typhimurium [31]": {"test_system": "Salmonella typhimurium", "experiment": "Mutagenicity against Salmonella typhimurium TA100 assessed as revertants at 3 uM incubated for 90 mins followed by drug washout measured after 2 days relative to positive control", "type": "toxicity, organism-based", "details": "salmonella enterica subsp. enterica serovar typhimurium, 1.5 h"}, "Plasmodium berghei [32]": {"test_system": "Plasmodium berghei", "experiment": "Antimalarial activity against Plasmodium berghei ANKA expressing GFP infected in mouse assessed as cure from infection at 30 mg/kg, po administered at 6,24,48 and 72 hrs post-infection measured on day 30", "type": "functional, organism-based", "set-up": "dose 30 mg/kg"}, "Heart [33]": {"test_system": "Heart", "experiment": "Cardiotoxicity against Sprague-Dawley rat Langendorff perfused heart assessed as atrioventricular conduction time at 10 uM by electrophysiological analysis (reference value: 42.67 2.29 ms)", "type": "toxicity, tissue-based"}},
  "note": "Calls of active or inactive are those of the source. The rule behind the calls is not given here.",
  "data": [
    {"smiles": "Clc1ccc(C(Nc2ccnc3cc(Cl)ccc23)c2ccc(CN3CCNCC3)cc2)cc1", "note": "(racemic)", "values": [
      {"measurement": "Ratio IC50", "setting": "Plasmodium falciparum [1]", "result": 0.93},
      {"measurement": "inhibition", "setting": "[2]", "result": "Dose-dependent effect"},
      {"measurement": "Activity", "setting": "Salmonella typhimurium [3]", "result": 4, "unit": "%"},
      {"measurement": "Time", "setting": "Heart [4]", "result": 17, "unit": "ms"},
      {"measurement": "Activity", "setting": "Plasmodium berghei [5]", "result": 99.5, "unit": "%"},
      {"measurement": "IC50", "setting": "Plasmodium falciparum [6]", "result": 0.058, "unit": "µM"},
      {"measurement": "Activity", "setting": "Salmonella typhimurium [7]", "result": 4, "unit": "%"},
      {"measurement": "Time", "setting": "Heart [8]", "result": 22.67, "unit": "ms"},
      {"measurement": "Activity", "setting": "Plasmodium berghei [9]", "result": "inactive"},
      {"measurement": "Drug uptake", "setting": "Liver [10]", "result": "Not Active"},
      {"measurement": "inhibition", "setting": "[11]", "result": "Active"},
      {"measurement": "MSD", "setting": "Plasmodium berghei [12]", "result": 29.6, "unit": "days"},
      {"measurement": "Activity", "setting": "Heart [13]", "result": 116.31, "unit": "bpm"},
      {"measurement": "Time", "setting": "Heart [14]", "result": 75.67, "unit": "ms"},
      {"measurement": "Activity", "setting": "Heart [15]", "result": 235.08, "unit": "bpm"},
      {"measurement": "Time", "setting": "Heart [16]", "result": 42.38, "unit": "ms"},
      {"measurement": "Activity", "setting": "Salmonella typhimurium [17]", "result": 4, "unit": "%"},
      {"measurement": "Activity", "setting": "Salmonella typhimurium [18]", "result": 13, "unit": "%"},
      {"measurement": "Activity", "setting": "Salmonella typhimurium [19]", "result": 27, "unit": "%"},
      {"measurement": "Activity", "setting": "Plasmodium berghei [20]", "result": 99.8, "unit": "%"},
      {"measurement": "half-life", "setting": "[21]", "result": 22, "unit": "h"},
      {"measurement": "Drug uptake", "setting": "Plasma", "result": "Active"},
      {"measurement": "Activity", "setting": "Heart [22]", "result": "Dose-dependent effect"},
      {"measurement": "IC50", "setting": "[23]", "result": 9.5, "unit": "µM"},
      {"measurement": "Time", "setting": "Heart [24]", "result": 145.15, "unit": "ms"},
      {"measurement": "Time", "setting": "Heart [25]", "result": 94.33, "unit": "ms"},
      {"measurement": "Ratio IC50", "setting": "Plasmodium falciparum [26]", "result": 1.3},
      {"measurement": "blood plasma ratio", "setting": "[27]", "result": 1.9},
      {"measurement": "Drug uptake", "setting": "Liver [28]", "result": "Active"},
      {"measurement": "inhibition", "setting": "[29]", "result": "inactive"},
      {"measurement": "Activity", "setting": "Plasmodium berghei [30]", "result": 99.8, "unit": "%"},
      {"measurement": "Activity", "setting": "Salmonella typhimurium [31]", "result": 22, "unit": "%"},
      {"measurement": "Activity", "setting": "Plasmodium berghei [32]", "result": "inactive"},
      {"measurement": "Time", "setting": "Heart [33]", "result": 50.56, "unit": "ms"}
    ]}
  ]
}
